ChEMBL document CHEMBL1909046, “DrugMatrix in vitro pharmacology data”
pIC50, pKi: −log10 of the molar value.

Legend:
[1] = target: Protein phosphatase 3 catalytic subunit alpha (Homo sapiens, UniProt Q08209); parameters: species or system Escherichia coli;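 also: inhibition of calcineurin (PP2B) enzyme activity, measured with DiFMUP as the substrate; in other assays of this panel Not Active means under 50% inhibition at 10 µM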
[2] = DRUGMATRIX: Imidazoline I2, Central radioligand binding (ligand: [3H] Idazoxan); type: cell membranes, Rattus norvegicus, Wistar, Cerebral cortex, Membrane; conditions: Not Active = under 50% inhibition at 10 µM
[3] = target: T1, Neuropeptide Y receptor type 2 (Homo sapiens, UniProt P49146); type: cell membranes, Membrane; conditions: kan-ts; also: in other assays of this panel Not Active means under 50% inhibition at 10 µM
T1 sequence (P49146 whole entry): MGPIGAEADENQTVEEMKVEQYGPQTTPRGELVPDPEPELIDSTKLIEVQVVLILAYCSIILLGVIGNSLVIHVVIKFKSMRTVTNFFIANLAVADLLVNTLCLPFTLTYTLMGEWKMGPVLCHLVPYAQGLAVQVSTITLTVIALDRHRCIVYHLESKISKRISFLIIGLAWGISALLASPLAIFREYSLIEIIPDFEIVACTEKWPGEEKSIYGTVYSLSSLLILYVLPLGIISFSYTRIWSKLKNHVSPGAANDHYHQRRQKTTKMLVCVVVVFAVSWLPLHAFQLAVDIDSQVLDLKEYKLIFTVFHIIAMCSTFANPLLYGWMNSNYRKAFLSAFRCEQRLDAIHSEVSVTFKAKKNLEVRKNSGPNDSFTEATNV

[4] = target: Sigma non-opioid intracellular receptor 1 (Homo sapiens, UniProt Q99720); assay: DRUGMATRIX: Sigma1 radioligand binding (ligand: [3H] Haloperidol); type: cell membranes, Jurkat, Membrane; conditions: Not Active = under 50% inhibition at 10 µM; for IC50: jurkat
[5] = target: Platelet-activating factor receptor (Homo sapiens, UniProt P25105); assay: biochemical; type: tissue-based; conditions: platelet; also: in other assays of this panel Not Active means under 50% inhibition at 10 µM
[6] = target: T2, 3-hydroxy-3-methylglutaryl-coenzyme A reductase (Homo sapiens, UniProt P04035); parameters: species or system Escherichia coli;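 also: enzyme inhibition assay of HMG-CoA reductase using radiolabeled [14C]HMG-CoA as substrate; in other assays of this panel Not Active means under 50% inhibition at 10 µM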
T2 sequence (P04035 whole entry): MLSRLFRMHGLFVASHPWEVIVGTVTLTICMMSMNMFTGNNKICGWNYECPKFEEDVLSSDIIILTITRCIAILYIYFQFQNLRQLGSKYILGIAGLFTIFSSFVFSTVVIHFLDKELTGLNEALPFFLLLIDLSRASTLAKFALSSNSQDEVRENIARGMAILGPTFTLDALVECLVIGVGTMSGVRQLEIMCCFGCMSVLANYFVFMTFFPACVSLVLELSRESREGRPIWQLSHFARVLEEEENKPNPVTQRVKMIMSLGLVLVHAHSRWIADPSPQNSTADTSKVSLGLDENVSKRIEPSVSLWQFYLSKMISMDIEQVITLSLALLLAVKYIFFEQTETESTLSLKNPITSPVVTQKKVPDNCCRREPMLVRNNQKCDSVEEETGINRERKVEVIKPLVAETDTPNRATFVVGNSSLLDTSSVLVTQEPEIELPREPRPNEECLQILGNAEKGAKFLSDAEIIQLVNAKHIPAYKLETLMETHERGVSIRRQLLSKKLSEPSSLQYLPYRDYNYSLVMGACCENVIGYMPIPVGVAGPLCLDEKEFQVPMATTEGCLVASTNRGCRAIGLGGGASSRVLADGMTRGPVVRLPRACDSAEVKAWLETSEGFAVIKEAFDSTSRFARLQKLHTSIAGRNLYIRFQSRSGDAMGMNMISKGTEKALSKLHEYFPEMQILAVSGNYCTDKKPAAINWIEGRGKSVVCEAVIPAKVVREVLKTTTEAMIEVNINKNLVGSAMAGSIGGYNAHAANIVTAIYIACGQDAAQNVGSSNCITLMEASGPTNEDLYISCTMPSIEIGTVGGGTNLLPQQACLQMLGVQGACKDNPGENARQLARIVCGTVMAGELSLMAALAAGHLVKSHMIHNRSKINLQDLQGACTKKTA

[7] = target: 5-hydroxytryptamine receptor 2B (Homo sapiens, UniProt P41595); type: cell membranes, CHO-K1, Membrane; conditions: cho-k1; also: in other assays of this panel Not Active means under 50% inhibition at 10 µM
Acetylcholinesterase = Acetylcholinesterase (Homo sapiens, UniProt P22303); assay: DRUGMATRIX: Acetylcholinesterase enzyme inhibition (substrate: acetylthiocholine); type: cell-based, HEK293; conditions: hek293; Not Active = under 50% inhibition at 10 µM
Progesterone receptor = target: T3, Progesterone receptor (Bos taurus, UniProt Q690N0); assay: DRUGMATRIX: Progesterone radioligand binding (ligand: [3H] R-5020); type: tissue-based, Uterus; conditions: Not Active = under 50% inhibition at 10 µM
T3 sequence (Q690N0 whole entry): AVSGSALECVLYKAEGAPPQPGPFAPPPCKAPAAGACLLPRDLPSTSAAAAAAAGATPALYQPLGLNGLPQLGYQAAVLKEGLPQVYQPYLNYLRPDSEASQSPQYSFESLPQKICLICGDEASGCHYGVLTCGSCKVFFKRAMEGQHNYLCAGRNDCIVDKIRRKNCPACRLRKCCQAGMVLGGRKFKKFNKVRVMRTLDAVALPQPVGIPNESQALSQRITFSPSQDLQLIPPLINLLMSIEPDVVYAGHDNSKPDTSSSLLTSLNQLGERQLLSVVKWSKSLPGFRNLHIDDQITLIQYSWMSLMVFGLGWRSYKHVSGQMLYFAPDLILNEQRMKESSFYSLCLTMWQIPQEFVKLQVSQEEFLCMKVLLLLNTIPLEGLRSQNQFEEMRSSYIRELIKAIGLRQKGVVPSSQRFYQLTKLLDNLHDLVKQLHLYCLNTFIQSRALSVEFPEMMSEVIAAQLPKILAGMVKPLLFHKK

[8] = target: C-C chemokine receptor type 2 (Homo sapiens, UniProt P41597); type: cell membranes, CHO-K1, Membrane; conditions: cho-k1; also: in other assays of this panel Not Active means under 50% inhibition at 10 µM
[9] = DRUGMATRIX: Phosphodiesterase PDE4 enzyme inhibition (substrate: [3H]cAMP + cAMP); conditions: u-937; Not Active = under 50% inhibition at 10 µM
Adenosine receptor A2a = Adenosine receptor A2a (Homo sapiens, UniProt P29274); assay: DRUGMATRIX: Adenosine A2A radioligand binding (ligand: […]); type: cell membranes, HEK293, Membrane; conditions: hek293; Not Active = under 50% inhibition at 10 µM
Sequence of Adenosine receptor A2a (P29274 whole entry): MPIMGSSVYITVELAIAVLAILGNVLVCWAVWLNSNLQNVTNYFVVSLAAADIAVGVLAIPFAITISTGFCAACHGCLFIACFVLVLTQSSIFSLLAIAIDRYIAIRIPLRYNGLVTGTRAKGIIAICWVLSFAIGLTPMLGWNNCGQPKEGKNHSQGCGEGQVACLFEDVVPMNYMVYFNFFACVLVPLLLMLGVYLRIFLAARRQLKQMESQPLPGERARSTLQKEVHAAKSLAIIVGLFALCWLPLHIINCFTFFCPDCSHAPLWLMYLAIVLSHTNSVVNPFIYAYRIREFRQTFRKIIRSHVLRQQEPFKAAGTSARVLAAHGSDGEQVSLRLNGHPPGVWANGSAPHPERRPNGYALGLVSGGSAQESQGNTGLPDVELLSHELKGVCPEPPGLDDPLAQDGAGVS

Sequence of Sigma non-opioid intracellular receptor 1 (Q99720 whole entry): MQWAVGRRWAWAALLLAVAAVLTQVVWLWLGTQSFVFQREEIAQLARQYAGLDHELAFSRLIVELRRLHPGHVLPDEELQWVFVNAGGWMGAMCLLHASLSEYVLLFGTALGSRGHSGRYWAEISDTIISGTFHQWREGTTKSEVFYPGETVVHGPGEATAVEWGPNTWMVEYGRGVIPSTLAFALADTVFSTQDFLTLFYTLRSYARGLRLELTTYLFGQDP
Sequence of Platelet-activating factor receptor (P25105 whole entry): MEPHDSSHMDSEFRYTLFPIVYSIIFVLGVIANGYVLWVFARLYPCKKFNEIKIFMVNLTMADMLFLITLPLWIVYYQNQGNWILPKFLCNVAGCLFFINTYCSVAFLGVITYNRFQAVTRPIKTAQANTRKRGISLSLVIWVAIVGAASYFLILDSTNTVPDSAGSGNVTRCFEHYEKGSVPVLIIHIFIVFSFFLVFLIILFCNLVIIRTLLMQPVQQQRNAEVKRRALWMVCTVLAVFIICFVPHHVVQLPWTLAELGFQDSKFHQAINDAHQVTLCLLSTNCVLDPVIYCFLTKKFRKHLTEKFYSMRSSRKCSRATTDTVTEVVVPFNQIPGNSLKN
Sequence of C-C chemokine receptor type 2 (P41597 whole entry): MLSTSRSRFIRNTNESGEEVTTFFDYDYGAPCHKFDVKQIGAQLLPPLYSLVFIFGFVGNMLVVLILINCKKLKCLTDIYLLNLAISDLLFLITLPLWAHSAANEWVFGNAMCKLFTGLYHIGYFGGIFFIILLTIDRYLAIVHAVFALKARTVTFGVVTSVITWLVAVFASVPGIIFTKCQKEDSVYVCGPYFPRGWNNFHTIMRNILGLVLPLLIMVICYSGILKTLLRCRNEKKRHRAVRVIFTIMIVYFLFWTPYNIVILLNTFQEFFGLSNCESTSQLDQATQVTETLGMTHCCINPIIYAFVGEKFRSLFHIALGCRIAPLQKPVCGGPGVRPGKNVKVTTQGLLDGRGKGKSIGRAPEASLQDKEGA
Sequence of 5-hydroxytryptamine receptor 2B (P41595 whole entry): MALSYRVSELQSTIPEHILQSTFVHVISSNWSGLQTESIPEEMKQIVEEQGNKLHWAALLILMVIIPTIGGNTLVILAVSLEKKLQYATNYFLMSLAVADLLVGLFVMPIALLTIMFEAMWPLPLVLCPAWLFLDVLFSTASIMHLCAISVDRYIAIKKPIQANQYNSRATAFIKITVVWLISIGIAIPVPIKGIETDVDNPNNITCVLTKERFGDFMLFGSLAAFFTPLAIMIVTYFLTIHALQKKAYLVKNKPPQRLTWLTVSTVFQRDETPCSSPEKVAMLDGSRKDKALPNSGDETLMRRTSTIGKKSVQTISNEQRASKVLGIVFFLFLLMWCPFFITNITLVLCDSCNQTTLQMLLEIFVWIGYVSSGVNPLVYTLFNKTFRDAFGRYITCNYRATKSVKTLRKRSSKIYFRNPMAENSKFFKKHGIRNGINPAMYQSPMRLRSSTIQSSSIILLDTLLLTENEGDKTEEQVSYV
Sequence of Acetylcholinesterase (P22303 whole entry): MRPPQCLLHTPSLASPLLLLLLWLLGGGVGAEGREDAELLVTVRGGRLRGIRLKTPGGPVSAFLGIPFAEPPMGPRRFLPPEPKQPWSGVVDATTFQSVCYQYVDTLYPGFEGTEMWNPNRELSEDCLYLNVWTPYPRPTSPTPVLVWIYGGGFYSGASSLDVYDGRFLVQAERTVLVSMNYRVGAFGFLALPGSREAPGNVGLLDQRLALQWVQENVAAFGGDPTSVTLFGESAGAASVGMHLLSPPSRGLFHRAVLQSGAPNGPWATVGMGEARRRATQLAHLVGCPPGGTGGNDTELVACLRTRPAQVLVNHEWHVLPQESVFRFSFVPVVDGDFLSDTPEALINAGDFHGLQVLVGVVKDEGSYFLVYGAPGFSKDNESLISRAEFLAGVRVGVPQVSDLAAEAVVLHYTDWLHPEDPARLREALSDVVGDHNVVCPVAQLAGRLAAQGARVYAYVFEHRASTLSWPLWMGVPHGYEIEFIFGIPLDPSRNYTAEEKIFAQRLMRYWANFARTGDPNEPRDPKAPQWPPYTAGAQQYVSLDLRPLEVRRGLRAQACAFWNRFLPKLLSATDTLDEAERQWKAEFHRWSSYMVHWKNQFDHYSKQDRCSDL

Structure (SMILES): CN(C)[C@@H]1C(O)=C(C(N)=O)C(=O)[C@@]2(O)C(O)=C3C(=O)c4c(O)cccc4[C@@](C)(O)[C@H]3[C@H](O)[C@@H]12 [OXYTETRACYCLINE]
- IC50 [1]: Not Active
- IC50 [2]: Not Active
- Ki [2]: Not Active
- IC50 [3]: Not Active
- IC50 [4]: Not Active
- IC50 [5]: Not Active
- IC50 [6]: Not Active
- IC50 [7]: Not Active
- IC50 (Acetylcholinesterase): Not Active
- IC50 (Progesterone receptor): Not Active
- IC50 [8]: Not Active
- IC50 [9]: Not Active
- Ki [9]: Not Active
- IC50 (Adenosine receptor A2a): Not Active

Structure (SMILES): Fc1ccc([C@@H]2CCNC[C@H]2COc2ccc3c(c2)OCO3)cc1 [PAROXETINE]
- IC50 [1]: Not Active
- IC50 [2]: Not Active
- Ki [2]: Not Active
- IC50 [3]: Not Active
- pIC50 ([4]; read-out: IC50): 5.27
- pKi ([4]; read-out: Ki): 5.65
- IC50 [5]: Not Active
- IC50 [6]: Not Active
- IC50 [7]: Not Active
- IC50 (Acetylcholinesterase): Not Active
- IC50 (Progesterone receptor): Not Active
- IC50 [8]: Not Active
- IC50 [9]: Not Active
- Ki [9]: Not Active
- IC50 (Adenosine receptor A2a): Not Active

Structure (SMILES): CC(C)(S)[C@@H](N)C(=O)O [PENICILLAMINE]
- IC50 [1]: Not Active
- IC50 [2]: Not Active
- Ki [2]: Not Active
- IC50 [3]: Not Active
- IC50 [4]: Not Active
- IC50 [5]: Not Active
- IC50 [6]: Not Active
- IC50 [7]: Not Active
- IC50 (Acetylcholinesterase): Not Active
- IC50 (Progesterone receptor): Not Active
- IC50 [8]: Not Active
- IC50 [9]: Not Active
- Ki [9]: Not Active
- IC50 (Adenosine receptor A2a): Not Active

Structure (SMILES): CC(=O)CCCCn1c(=O)c2c(ncn2C)n(C)c1=O [PENTOXIFYLLINE]
- IC50 [1]: Not Active
- IC50 [2]: Not Active
- Ki [2]: Not Active
- IC50 [3]: Not Active
- IC50 [4]: Not Active
- IC50 [5]: Not Active
- IC50 [6]: Not Active
- IC50 [7]: Not Active
- IC50 (Acetylcholinesterase): Not Active
- IC50 (Progesterone receptor): Not Active
- IC50 [8]: Not Active
- IC50 [9]: Not Active
- Ki [9]: Not Active
- IC50 (Adenosine receptor A2a): Not Active

Structure (SMILES): O=C1NC(=O)C(c2ccccc2)(c2ccccc2)N1 [PHENYTOIN]
- IC50 [1]: Not Active
- IC50 [2]: Not Active
- Ki [2]: Not Active
- IC50 [3]: Not Active
- IC50 [4]: Not Active
- IC50 [5]: Not Active
- IC50 [6]: Not Active
- IC50 [7]: Not Active
- IC50 (Acetylcholinesterase): Not Active
- IC50 (Progesterone receptor): Not Active
- IC50 [8]: Not Active
- IC50 [9]: Not Active
- Ki [9]: Not Active
- IC50 (Adenosine receptor A2a): Not Active

Structure (SMILES): C=C(C)[C@@H]1[C@H]2OC(=O)[C@@H]1[C@]1(O)C[C@H]3O[C@]34C(=O)O[C@H]2[C@]14C [PICROTOXININ]
- IC50 [1]: Not Active
- IC50 [2]: Not Active
- Ki [2]: Not Active
- IC50 [3]: Not Active
- IC50 [4]: Not Active
- IC50 [5]: Not Active
- IC50 [6]: Not Active
- IC50 [7]: Not Active
- IC50 (Acetylcholinesterase): Not Active
- IC50 (Progesterone receptor): Not Active
- IC50 [8]: Not Active
- IC50 [9]: Not Active
- Ki [9]: Not Active
- IC50 (Adenosine receptor A2a): Not Active
